# Where two headings read alike, the source gives them in different places.
# How the values were obtained:
# Assay in all cases: SPR equilibrium binding to sparsely-tethered bilayer (stBLM)
# wt PTEN [1] = target: T1, wt PTEN (Homo sapiens, UniProt P60484); details: for Kd: read-out: Kd (μM) / Component a
# T1 construct: full-length, six-histidine tag at the C-terminus, expressed in Escherichia coli BL21 (DE3)
# Source text: (§1) SPR equilibrium binding to sparsely-tethered bilayer (stBLM) on wt PTEN
# wt PTEN [2] = target: T2, wt PTEN (Homo sapiens, UniProt P60484, C124S)
# T2 construct: full-length, six-histidine tag at the C-terminus, expressed in Escherichia coli BL21 (DE3)
# Source text: as §1
# wt PTEN [3] = target: T3, wt PTEN (Homo sapiens, UniProt P60484, H93R); details: DOPC:PI(4,5)P2 97.8:2.2 bilayer, pH 7.0, room temperature
# T3 construct: full-length, six-histidine tag at the C-terminus, expressed in Escherichia coli BL21 (DE3)
# Source text: as §1
# truncated PTEN = target: T4, truncated PTEN (Homo sapiens, UniProt P60484, DEL286-309); details: DOPC:PI(4,5)P2 97.8:2.2 bilayer, pH 7.0, room temperature
# T4 construct: crystallization construct: residues 1-6, loop 286-309 and C-terminal tail 354-403 deleted; plasmid from N. R. Leslie; expressed in E. coli, His-tag purified
# Source text: SPR equilibrium binding to sparsely-tethered bilayer (stBLM) on truncated PTEN
compound,measurement,setting,value
"CCCCCCCCCCCCCCCC(=O)OC[C@H](COP(=O)(O)O[C@@H]1[C@H](O)[C@H](O)[C@@H](OP(=O)(O)O)[C@H](OP(=O)(O)O)[C@H]1O)OC(=O)CCCCCCCCCCCCCCC [DPPI(4,5)P2]",Kd,wt PTEN [1],1.9 ± 0.3 µM
"CCCCCCCCCCCCCCCC(=O)OC[C@H](COP(=O)(O)O[C@H]1[C@H](O)[C@@H](OP(=O)(O)O)[C@H](OP(=O)(O)O)[C@@H](OP(=O)(O)O)[C@H]1O)OC(=O)CCCCCCCCCCCCCCC [PI(3,4,5)P3]",Kd,wt PTEN [2],0.12 ± 0.03 µM
same,Kd (μM) / Component a,"wt PTEN [1]; DOPC:PI(3,4,5)P3 97.9:2.1 bilayer, pH 7.0, room temperature, unreliable (active enzyme likely converts the lipid during the measurement)",2.4 ± 0.2 µM
"PI(4,5)P2",Kd,"wt PTEN [2]; DOPC:PI(4,5)P2 97.8:2.2 bilayer, pH 7.0, room temperature",0.32 ± 0.03 µM
same,Kd,wt PTEN [3],1.3 ± 0.2 µM
same,Kd,"wt PTEN [1]; DOPC:PI(4,5)P2 97.8:2.2 bilayer (same Kd at 0.7 and 3.7 mol%), 100 mM NaCl, 10 mM HEPES, 1 mM EDTA, pH 7.0, room temperature, Kd as protein concentration at half saturation",0.4 ± 0.1 µM
same,Kd,truncated PTEN,0.77 ± 0.07 µM
